Results reported in ChEMBL document CHEMBL4800726, “Data for DCP probe MSC-4381” (2021).

What was measured:
Settings in all cases: Compound concentration 10.0 uM
[1] = molecular target: T1, 5-hydroxytryptamine receptor 1A (Homo sapiens) (UniProt P08908)
T1 sequence (whole entry): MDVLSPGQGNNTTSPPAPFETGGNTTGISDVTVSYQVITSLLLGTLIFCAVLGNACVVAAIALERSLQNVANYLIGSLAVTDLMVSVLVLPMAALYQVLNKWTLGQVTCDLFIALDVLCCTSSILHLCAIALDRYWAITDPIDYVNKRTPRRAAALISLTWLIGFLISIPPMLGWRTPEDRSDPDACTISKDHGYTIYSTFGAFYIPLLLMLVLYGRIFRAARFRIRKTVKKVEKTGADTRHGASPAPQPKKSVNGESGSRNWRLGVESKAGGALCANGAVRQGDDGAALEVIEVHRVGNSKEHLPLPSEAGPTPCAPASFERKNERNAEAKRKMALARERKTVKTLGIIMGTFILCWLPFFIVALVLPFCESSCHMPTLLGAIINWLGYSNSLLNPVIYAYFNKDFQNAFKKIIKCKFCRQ

[2] = molecular target: 5-hydroxytryptamine receptor 2A (Homo sapiens) (UniProt P28223)
[3] = molecular target: 5-hydroxytryptamine receptor 2C (Homo sapiens) (UniProt P28335)
[4] = molecular target: T2, 5-hydroxytryptamine receptor 3A (Homo sapiens) (UniProt P46098)
T2 sequence (whole entry): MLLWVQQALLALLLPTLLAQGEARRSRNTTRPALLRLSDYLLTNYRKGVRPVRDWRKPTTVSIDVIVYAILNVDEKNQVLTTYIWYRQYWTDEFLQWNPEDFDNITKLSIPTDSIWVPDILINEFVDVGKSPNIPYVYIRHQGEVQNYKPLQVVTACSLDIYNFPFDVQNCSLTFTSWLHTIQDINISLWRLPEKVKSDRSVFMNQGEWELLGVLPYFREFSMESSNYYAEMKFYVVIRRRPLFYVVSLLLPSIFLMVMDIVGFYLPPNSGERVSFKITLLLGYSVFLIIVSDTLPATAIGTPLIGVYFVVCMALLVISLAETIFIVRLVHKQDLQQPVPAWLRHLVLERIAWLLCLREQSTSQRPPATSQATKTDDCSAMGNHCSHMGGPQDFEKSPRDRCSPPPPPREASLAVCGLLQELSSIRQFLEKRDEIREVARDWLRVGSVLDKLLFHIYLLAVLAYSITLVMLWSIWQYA

[5] = molecular target: 5-hydroxytryptamine receptor 6 (Homo sapiens, UniProt P50406)
[6] = molecular target: D(1A) dopamine receptor (Homo sapiens) (UniProt P21728)
[7] = molecular target: D(2) dopamine receptor (Homo sapiens) (UniProt P14416)
[8] = molecular target: Sodium-dependent serotonin transporter (Homo sapiens) (UniProt P31645)
[9] = molecular target: Sodium-dependent noradrenaline transporter (Homo sapiens) (UniProt P23975)
[10] = molecular target: Sodium-dependent dopamine transporter (Homo sapiens, UniProt Q01959)
[11] = molecular target: Alpha-1A adrenergic receptor (Homo sapiens) (UniProt P35348)
[12] = molecular target: Alpha-1B adrenergic receptor (Homo sapiens) (UniProt P35368)
[13] = molecular target: Alpha-2B adrenergic receptor (Homo sapiens) (UniProt P18089)
[14] = molecular target: Alpha-2C adrenergic receptor (Homo sapiens) (UniProt P18825)
[15] = molecular target: Beta-2 adrenergic receptor (Homo sapiens) (UniProt P07550)
[16] = molecular target: T3, Muscarinic acetylcholine receptor M2 (Homo sapiens) (UniProt P08172)
T3 sequence (whole entry): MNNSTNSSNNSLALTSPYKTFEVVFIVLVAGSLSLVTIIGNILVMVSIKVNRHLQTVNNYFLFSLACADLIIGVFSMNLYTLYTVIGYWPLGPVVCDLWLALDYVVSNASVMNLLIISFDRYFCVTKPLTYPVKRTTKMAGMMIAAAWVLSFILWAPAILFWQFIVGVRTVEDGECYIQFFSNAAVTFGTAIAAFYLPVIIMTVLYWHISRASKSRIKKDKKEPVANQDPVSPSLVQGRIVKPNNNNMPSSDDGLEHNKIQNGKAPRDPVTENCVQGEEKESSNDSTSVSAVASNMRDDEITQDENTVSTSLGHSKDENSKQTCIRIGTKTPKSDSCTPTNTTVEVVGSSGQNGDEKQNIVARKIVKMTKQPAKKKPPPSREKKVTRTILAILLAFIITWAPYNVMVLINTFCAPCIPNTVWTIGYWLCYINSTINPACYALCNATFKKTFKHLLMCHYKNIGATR

[17] = molecular target: T4, Muscarinic acetylcholine receptor M5 (Homo sapiens) (UniProt P08912)
T4 sequence (whole entry): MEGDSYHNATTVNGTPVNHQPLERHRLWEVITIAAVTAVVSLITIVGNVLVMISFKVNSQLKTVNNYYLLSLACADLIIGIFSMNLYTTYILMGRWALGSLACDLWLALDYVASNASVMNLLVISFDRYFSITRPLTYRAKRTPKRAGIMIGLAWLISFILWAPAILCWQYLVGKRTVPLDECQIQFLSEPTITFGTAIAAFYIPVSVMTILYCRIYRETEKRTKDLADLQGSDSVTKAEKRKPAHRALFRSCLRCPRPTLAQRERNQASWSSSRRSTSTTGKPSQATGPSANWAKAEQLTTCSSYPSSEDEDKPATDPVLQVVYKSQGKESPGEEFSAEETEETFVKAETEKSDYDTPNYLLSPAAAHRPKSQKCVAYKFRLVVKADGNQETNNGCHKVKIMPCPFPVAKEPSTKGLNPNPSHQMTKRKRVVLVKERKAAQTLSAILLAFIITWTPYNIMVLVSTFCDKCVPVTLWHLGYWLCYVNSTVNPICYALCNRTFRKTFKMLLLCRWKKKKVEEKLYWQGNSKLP

[18] = molecular target: GABA-A receptor; anion channel (Rattus norvegicus) (UniProt O09028+P15431+P18506+P18508+P19969+P20236+P23574+P23576+P28471+P28473+P30191+P62813+P63079+P63138+Q91ZM7+Q9ES14)
[19] = molecular target: Sigma non-opioid intracellular receptor 1 (Homo sapiens) (UniProt Q99720)

Alpha-2C adrenergic receptor (Homo sapiens), sequence (P18825 whole entry): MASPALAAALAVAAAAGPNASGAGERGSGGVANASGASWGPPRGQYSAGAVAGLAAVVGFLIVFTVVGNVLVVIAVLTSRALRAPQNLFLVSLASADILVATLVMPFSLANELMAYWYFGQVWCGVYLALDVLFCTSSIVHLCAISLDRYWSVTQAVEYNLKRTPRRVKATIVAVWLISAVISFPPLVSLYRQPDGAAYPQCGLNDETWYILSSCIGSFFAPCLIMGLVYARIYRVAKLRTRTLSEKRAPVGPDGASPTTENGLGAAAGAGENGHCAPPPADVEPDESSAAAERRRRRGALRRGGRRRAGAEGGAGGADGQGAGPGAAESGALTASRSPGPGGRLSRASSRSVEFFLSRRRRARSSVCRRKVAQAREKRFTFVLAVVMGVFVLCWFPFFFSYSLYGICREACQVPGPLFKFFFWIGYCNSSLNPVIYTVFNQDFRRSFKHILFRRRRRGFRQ
5-hydroxytryptamine receptor 2C (Homo sapiens), sequence (P28335 whole entry): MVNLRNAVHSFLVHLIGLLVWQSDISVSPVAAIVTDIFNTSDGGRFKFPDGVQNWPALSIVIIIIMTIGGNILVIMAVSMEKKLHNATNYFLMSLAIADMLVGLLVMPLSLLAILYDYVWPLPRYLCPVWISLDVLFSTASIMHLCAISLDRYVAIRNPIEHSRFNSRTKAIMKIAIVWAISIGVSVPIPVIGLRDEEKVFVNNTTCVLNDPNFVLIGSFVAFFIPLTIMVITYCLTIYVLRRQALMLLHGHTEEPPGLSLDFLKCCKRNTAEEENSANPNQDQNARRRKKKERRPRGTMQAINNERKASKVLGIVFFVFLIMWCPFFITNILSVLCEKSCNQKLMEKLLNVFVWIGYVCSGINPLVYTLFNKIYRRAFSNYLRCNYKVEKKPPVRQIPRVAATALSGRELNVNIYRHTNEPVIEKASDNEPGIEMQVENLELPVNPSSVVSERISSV
Alpha-1B adrenergic receptor (Homo sapiens), sequence (P35368 whole entry): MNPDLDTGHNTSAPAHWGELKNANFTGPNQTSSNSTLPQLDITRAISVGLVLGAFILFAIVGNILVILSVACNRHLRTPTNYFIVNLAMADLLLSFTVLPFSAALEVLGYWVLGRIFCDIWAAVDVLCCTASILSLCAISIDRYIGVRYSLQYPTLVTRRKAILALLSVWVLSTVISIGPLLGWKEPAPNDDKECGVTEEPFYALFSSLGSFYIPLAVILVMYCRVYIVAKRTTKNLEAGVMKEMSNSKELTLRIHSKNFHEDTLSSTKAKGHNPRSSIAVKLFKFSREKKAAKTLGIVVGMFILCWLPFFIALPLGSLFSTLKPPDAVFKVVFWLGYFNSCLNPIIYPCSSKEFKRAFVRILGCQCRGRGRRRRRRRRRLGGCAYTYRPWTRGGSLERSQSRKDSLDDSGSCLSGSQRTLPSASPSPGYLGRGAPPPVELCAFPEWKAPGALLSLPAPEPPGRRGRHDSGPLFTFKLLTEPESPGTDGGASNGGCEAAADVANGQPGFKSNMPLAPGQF
5-hydroxytryptamine receptor 2A (Homo sapiens), sequence (P28223 whole entry): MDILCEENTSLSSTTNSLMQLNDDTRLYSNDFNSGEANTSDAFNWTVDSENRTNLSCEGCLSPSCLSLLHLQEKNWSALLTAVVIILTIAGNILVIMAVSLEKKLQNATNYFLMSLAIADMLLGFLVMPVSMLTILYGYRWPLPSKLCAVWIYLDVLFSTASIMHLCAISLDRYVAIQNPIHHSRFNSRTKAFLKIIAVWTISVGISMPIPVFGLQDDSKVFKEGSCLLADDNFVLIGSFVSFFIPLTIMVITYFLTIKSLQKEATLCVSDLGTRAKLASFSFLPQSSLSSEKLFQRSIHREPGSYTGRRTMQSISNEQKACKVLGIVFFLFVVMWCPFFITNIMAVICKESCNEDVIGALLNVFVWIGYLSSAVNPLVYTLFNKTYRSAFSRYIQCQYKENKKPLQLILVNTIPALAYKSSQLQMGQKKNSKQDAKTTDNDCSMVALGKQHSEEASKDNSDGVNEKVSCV
D(2) dopamine receptor (Homo sapiens), sequence (P14416 whole entry): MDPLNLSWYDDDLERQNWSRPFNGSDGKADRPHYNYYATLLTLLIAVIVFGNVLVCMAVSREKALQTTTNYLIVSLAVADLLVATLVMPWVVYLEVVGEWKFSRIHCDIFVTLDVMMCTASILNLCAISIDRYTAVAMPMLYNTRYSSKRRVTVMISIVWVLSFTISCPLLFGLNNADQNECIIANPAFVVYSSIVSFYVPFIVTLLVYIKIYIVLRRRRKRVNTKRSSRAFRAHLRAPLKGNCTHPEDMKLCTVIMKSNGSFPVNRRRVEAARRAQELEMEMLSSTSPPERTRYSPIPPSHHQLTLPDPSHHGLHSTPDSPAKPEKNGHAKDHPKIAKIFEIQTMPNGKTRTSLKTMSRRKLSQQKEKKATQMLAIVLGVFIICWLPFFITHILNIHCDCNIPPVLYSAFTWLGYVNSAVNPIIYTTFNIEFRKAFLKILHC
5-hydroxytryptamine receptor 6, sequence (P50406 whole entry): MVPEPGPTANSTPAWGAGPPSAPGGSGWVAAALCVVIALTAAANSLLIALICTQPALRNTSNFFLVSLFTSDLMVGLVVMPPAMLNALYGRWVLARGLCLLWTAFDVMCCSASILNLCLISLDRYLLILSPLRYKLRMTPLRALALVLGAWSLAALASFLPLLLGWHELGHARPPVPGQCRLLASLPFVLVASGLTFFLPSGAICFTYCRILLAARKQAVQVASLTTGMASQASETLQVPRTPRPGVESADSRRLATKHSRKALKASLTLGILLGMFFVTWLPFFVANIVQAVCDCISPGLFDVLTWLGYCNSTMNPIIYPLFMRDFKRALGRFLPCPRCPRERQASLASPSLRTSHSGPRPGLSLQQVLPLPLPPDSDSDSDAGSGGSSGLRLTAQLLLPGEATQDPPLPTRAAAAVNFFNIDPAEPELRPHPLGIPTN
Alpha-1A adrenergic receptor (Homo sapiens), sequence (P35348 whole entry): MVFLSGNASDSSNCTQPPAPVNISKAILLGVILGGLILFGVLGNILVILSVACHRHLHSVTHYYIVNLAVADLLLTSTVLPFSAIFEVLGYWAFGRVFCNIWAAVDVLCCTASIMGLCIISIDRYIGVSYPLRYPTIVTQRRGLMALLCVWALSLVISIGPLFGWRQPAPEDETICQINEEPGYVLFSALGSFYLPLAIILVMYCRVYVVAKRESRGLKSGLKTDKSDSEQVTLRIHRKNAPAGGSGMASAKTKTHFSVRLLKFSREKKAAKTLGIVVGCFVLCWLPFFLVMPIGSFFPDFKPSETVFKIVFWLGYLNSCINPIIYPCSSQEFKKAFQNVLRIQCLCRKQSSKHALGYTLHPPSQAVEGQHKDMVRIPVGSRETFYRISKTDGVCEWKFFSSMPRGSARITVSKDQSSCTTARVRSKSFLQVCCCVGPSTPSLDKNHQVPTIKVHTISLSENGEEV
Sodium-dependent noradrenaline transporter (Homo sapiens), sequence (P23975 whole entry): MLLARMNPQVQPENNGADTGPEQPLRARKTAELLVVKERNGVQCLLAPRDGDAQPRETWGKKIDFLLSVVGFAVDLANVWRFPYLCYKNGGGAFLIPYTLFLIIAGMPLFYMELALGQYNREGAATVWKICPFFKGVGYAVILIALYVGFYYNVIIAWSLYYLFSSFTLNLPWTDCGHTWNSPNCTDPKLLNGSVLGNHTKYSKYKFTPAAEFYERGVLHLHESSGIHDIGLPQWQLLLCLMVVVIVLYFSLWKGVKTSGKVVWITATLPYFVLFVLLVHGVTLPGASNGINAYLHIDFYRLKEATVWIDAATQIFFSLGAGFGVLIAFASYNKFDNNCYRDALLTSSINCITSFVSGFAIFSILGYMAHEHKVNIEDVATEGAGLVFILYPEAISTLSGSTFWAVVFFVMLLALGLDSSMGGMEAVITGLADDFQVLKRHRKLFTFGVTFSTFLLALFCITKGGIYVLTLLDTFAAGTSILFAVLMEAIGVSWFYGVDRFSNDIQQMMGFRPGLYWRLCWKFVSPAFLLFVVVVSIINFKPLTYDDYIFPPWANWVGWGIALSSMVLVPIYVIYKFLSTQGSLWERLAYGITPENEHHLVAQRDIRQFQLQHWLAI
Alpha-2B adrenergic receptor (Homo sapiens), sequence (P18089 whole entry): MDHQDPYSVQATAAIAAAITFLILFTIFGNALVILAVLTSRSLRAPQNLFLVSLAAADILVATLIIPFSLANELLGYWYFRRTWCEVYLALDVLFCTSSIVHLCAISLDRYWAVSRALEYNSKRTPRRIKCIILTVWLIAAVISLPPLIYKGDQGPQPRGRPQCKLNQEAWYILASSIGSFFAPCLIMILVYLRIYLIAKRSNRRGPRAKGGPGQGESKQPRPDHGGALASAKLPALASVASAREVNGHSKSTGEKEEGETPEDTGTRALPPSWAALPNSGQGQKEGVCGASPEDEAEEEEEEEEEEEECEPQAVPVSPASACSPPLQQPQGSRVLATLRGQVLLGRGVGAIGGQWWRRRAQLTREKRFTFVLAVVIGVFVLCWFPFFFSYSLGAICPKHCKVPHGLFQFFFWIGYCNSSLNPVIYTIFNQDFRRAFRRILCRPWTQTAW
D(1A) dopamine receptor (Homo sapiens), sequence (P21728 whole entry): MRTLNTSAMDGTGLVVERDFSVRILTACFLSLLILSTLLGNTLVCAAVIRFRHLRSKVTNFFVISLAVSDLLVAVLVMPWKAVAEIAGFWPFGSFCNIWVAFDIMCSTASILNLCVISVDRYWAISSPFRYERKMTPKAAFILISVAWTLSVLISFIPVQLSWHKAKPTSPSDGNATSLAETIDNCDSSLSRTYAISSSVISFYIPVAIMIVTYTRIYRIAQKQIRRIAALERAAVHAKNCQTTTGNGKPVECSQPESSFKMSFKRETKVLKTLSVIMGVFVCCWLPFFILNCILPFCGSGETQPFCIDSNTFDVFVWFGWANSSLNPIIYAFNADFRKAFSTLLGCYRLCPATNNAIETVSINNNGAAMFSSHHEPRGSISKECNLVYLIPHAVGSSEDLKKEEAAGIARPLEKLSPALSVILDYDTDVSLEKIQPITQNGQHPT

Structure (SMILES)	inhibition [1] [%]	inhibition [2] [%]	inhibition [3] [%]	inhibition [4] [%]	inhibition [5] [%]	inhibition [6] [%]	inhibition [7] [%]	inhibition [8] [%]	inhibition [9] [%]	inhibition [10] [%]	inhibition [11] [%]	inhibition [12] [%]	inhibition [13] [%]	inhibition [14] [%]	inhibition [15] [%]	inhibition [16] [%]	inhibition [17] [%]	inhibition [18] [%]	inhibition [19] [%]
COc1cc(C(=O)O)ncc1C#Cc1ccccc1NS(=O)(=O)c1cccc2c(N(C)C)ccnc12 [MSC-0516]	40.2	9.61	7.95	1.13	65.5	17.8	-0.32	3.99	-7.14	80.3	13.7	16.9	8.34	13	-2.19	2.62	-3.36	25.6	18.7
CCOc1ccc(S(=O)(=O)Nc2ccc(Cl)cc2C#Cc2cnc(C(=O)O)cc2OC)c2ncccc12 [MSC-4381]	18.6	-0.22	24.4	9.43	25.9	8.58	9.9	6.49	34.4	23.4	13.3	-9.4	15	27.7	14.8	-0.58	-6.26	0.15	-6.66
